The test system of test [1] is PC-3. Briefly: Antiproliferative activity against human PC-3 cells assessed as reduction in cell viability by MTT assay. The test is classed as functional, cell-based. (In general: Tetrazolium assays rely on reduction of a dye to a coloured formazan, in cell work by metabolically active cells.)
The subject of test [2] is DU-145. Briefly: Antiproliferative activity against human DU-145 cells assessed as reduction in cell viability by MTT assay. The test is classed as functional, cell-based.
In test [3] the test system is PC-3. The test is described as follows: Inhibition of cancer stem cell activity in human PC-3 cells assessed as decrease in KLF4 protein expression at 20 uM incubated for 48 hrs by Western blot analysis. Type of test: functional, cell-based.
In test [4] the test system is DU-145. The test is described as follows: Effect on FOXC2 gene expression level in human DU-145 cells. The test is classed as functional, cell-based.
The test system of test [5] is DU-145. Briefly: Inhibition of epithelial mesenchymal transition in human DU-145 cells assessed as upregulation of ZO-1 protein expression at 20 uM incubated for 48 hrs by Western blot analysis. The test is classed as functional, cell-based. (In general: In western blotting, separated proteins are transferred to a membrane and probed.)
Test [6] deals with DU-145. The test is described as follows: Inhibition of cancer stem cell activity in human DU-145 cells assessed as decrease in KLF4 protein expression at 20 uM incubated for 48 hrs by Western blot analysis. The test is classed as functional, cell-based.
For test [7], the system named is PC-3. The test is described as follows: Inhibition of epithelial mesenchymal transition in human PC-3 cells assessed as downregulation of Slug protein expression at 20 uM incubated for 48 hrs by Western blot analysis. The test is classed as functional, cell-based.
For test [8], the system named is LNCaP. Briefly: Antimetastatic activity in human LNCaP cells assessed as inhibition of cell invasion by measuring change in number of invading cells by transwell invasion assay. Type of test: functional, cell-based.
Test [9] deals with T1, Forkhead box protein C2 (Homo sapiens) (UniProt Q99958).
T1 sequence (whole entry): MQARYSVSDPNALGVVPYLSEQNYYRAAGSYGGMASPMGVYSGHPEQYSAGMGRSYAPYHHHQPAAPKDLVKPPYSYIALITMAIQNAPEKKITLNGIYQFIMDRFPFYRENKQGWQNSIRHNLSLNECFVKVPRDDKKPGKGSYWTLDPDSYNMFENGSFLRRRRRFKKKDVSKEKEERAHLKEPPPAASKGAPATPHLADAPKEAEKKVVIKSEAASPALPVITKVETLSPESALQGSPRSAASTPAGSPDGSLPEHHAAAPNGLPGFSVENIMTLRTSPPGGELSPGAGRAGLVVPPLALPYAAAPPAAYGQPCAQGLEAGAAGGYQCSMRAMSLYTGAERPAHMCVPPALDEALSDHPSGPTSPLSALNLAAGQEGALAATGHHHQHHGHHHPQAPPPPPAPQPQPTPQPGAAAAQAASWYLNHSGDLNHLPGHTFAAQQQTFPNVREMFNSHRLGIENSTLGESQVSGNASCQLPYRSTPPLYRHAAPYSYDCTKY
The test is described as follows: Induction of FOXC2 degradation in human DU-145 cells assessed as decrease in FOXC2 protein level at 20 uM incubated for 48 hrs by Western blot analysis. The test is classed as cell-based.

The test system of test [10] is PC-3. Briefly: Inhibition of epithelial mesenchymal transition in human PC-3 cells assessed as downregulation of Vimentin protein expression at 20 uM incubated for 48 hrs by Western blot analysis. The test is classed as functional, cell-based.
Test [11] relates to DU-145. Briefly: Inhibition of epithelial mesenchymal transition in human DU-145 cells assessed as downregulation of Vimentin protein expression at 20 uM incubated for 48 hrs by Western blot analysis. Type of test: functional, cell-based.
Test [12] relates to PC-3. The test is described as follows: Antimetastatic activity in human PC-3 cells assessed as inhibition of cell invasion at 20 uM incubated for 24 hrs by transwell invasion assay. The test is classed as functional, cell-based.
The test system of test [13] is DU-145. Briefly: Inhibition of cancer stem cell activity in human DU-145 cells assessed as decrease in Nanog protein expression at 20 uM incubated for 48 hrs by Western blot analysis. The test is classed as functional, cell-based.
The subject of test [14] is DU-145. Briefly: Synergistic antiproliferative activity against human DU-145 cells assessed as reduction in cell viability incubated for 24 hrs in the presence of docetaxel by MTT assay. Type of test: functional, cell-based.
For test [15], the system named is PC-3. The test is described as follows: Synergistic antiproliferative activity against human PC-3 cells assessed as reduction in cell viability incubated for 24 hrs in the presence of docetaxel by MTT assay. The test is classed as functional, cell-based.
Test [16] has as its system DU-145. Briefly: Antimetastatic activity in human DU-145 cells assessed as inhibition of cell invasion at 20 uM incubated for 24 hrs by transwell invasion assay. Type of test: functional, cell-based.
For test [17], the system named is PC-3. The test is described as follows: Inhibition of epithelial mesenchymal transition in human PC-3 cells assessed as upregulation of ZO-1 protein expression at 20 uM incubated for 48 hrs by Western blot analysis. The test is classed as functional, cell-based.
In test [18] the test system is DU-145. The test is described as follows: Synergistic antiproliferative activity against human DU-145 cells assessed as combination index incubated for 24 hrs in the presence of enzalutamide by MTT assay. Type of test: functional.
For test [19], the system named is DU-145. Briefly: Inhibition of epithelial mesenchymal transition in human DU-145 cells assessed as upregulation of E-cadherin protein expression at 20 uM incubated for 48 hrs by Western blot analysis. Type of test: functional, cell-based.
Test [20] concerns DU-145. Briefly: Inhibition of cancer stem cell activity in human DU-145 cells assessed as decrease in C-myc protein expression at 20 uM incubated for 48 hrs by Western blot analysis. The test is classed as functional, cell-based.
The subject of test [21] is DU-145. Briefly: Inhibition of epithelial mesenchymal transition in human DU-145 cells assessed as downregulation of Slug protein expression at 20 uM incubated for 48 hrs by Western blot analysis. The test is classed as functional, cell-based.
For test [22], the system named is PC-3. The test is described as follows: Effect on FOXC2 gene expression level in human PC-3 cells. Type of test: functional, cell-based.
The subject of test [23] is DU-145. The test is described as follows: Inhibition of epithelial mesenchymal transition in human DU-145 cells assessed as downregulation of N-cadherin protein expression at 20 uM incubated for 48 hrs by Western blot analysis. The test is classed as functional, cell-based.
Test [24] relates to PC-3. Briefly: Inhibition of cancer stem cell activity in human PC-3 cells assessed as decrease in C-myc protein expression at 20 uM incubated for 48 hrs by Western blot analysis. Type of test: functional, cell-based.
In test [25] the test system is PC-3. Briefly: Inhibition of epithelial mesenchymal transition in human PC-3 cells assessed as upregulation of E-cadherin protein expression at 20 uM incubated for 48 hrs by Western blot analysis. The test is classed as functional, cell-based.
The subject of test [26] is PC-3. Briefly: Inhibition of epithelial mesenchymal transition in human PC-3 cells assessed as downregulation of N-cadherin protein expression at 20 uM incubated for 48 hrs by Western blot analysis. Type of test: functional, cell-based.
For test [27], the system named is PC-3. Briefly: Synergistic antiproliferative activity against human PC-3 cells assessed as combination index incubated for 24 hrs in the presence of enzalutamide by MTT assay. The test is classed as functional.
In test [28] the test system is PC-3. The test is described as follows: Inhibition of epithelial mesenchymal transition in human PC-3 cells assessed as downregulation of ZEBI protein expression at 20 uM incubated for 48 hrs by Western blot analysis. The test is classed as functional, cell-based.
Test [29] deals with DU-145. Briefly: Inhibition of epithelial mesenchymal transition in human DU-145 cells assessed as downregulation of ZEBI protein expression at 20 uM incubated for 48 hrs by Western blot analysis. Type of test: functional, cell-based.
Test [30] relates to PC-3. Briefly: Inhibition of cancer stem cell activity in human PC-3 cells assessed as decrease in Nanog protein expression at 20 uM incubated for 48 hrs by Western blot analysis. Type of test: functional, cell-based.
The test system of test [31] is LNCaP. Briefly: Synergistic antiproliferative activity against human LNCaP cells assessed as inhibition of cell growth in presence of docetaxel by MTT assay. Type of test: functional, cell-based.
In test [32] the target is T1, Forkhead box protein C2 (Homo sapiens). The test is described as follows: Induction of FOXC2 degradation in human PC-3 cells assessed as decrease in FOXC2 protein level at 20 uM incubated for 48 hrs by Western blot analysis. Type of test: cell-based.

Here are results for 3 molecules from ChEMBL document CHEMBL5321252, “A FOXC2 inhibitor, MC-1-F2, as a therapeutic candidate for targeting EMT in castration-resistant prostate cancer” (Bioorg Med Chem Lett, 2023).

Calls of active or inactive are those of the source. No cut-off for these calls is given here.

As a reminder, the EC50 is the concentration giving half of the maximal effect. On to `CC(=O)O[C@@]12CO[C@@H]1C[C@H](O)[C@@]1(C)C(=O)[C@H](O)C3=C(C)[C@@H](OC(=O)[C@H](O)[C@@H](NC(=O)OC(C)(C)C)c4ccccc4)C[C@@](O)([C@@H](OC(=O)c4ccccc4)[C@H]21)C3(C)C` [DOCETAXEL ANHYDROUS], for which the EC50 was determined as 0.0076 µM in the test with PC-3 [1] and 0.00605 µM with DU-145 [2].

Turning to `CNC(=O)c1ccc(N2C(=S)N(c3ccc(C#N)c(C(F)(F)F)c3)C(=O)C2(C)C)cc1F`, the result in the test on PC-3 [1] and in the test on DU-145 [2] was inactive.

Regarding `N=C(N)NCCCCNc1nc(Nc2ccc(Oc3ccccc3)cc2)nc(N2CCN(c3nc(N)nc(Nc4ccc(N5CCOCC5)cc4)n3)CC2)n1`, the EC50 with PC-3 [1] came to 53.2 µM; with DU-145 [2], 48.1 µM. Further, the inhibition result in the test on PC-3 [3], in the test on DU-145 [5], in the test on DU-145 [6], with PC-3 [7], in the test on PC-3 [10] and with DU-145 [11] was “Active” throughout. Also, the inhibition result with DU-145 [13], in the test on PC-3 [17], in the test on DU-145 [19], in the test with DU-145 [20], with DU-145 [21] and in the test with DU-145 [23] was “Active” in each case. Besides, the inhibition result in the test on PC-3 [24], in the test with PC-3 [25], in the test with PC-3 [26], with PC-3 [28], in the test with DU-145 [29] and with PC-3 [30] was “Active” throughout. Besides, the outcome in the test with DU-145 [4], with LNCaP [8], in the test on PC-3 [22] and with LNCaP [31] was inactive. In addition, the result (in test [9]; in the test on PC-3 [12]; with DU-145 [14]; in the test with PC-3 [15]; in the test with DU-145 [16]; in [32]) was Active. Also, the CI with DU-145 [18] and with PC-3 [27] was more than 1 throughout.
